Data published in patent publication US8071581B2, “Triazolopyridazine protein kinase modulators” (SGX Pharmaceuticals, Inc., priority 2006, dated 2011).

Experiments:
GTL16 = GTL16 cell assay (EC50); assay type: cell-based; details: Homo sapiens, GTL 16
Method: Compounds were tested in the following assays in duplicate. 96-well XTT assay: Cells were grown in growth media containing various concentrations of compounds (duplicates) on a 96-well flat bottom plate for 72 hours at 37° C. in 5% CO2. The starting cell number was 5000 cells per well and volume was 120 μl. At the end of the 72-hour incubation, 40 μl of XTT labeling mixture (50:1 solution of sodium 3′-[1-(phenylaminocarbonyl)-3,4-tetrazolium]-bis(4-methoxy-6-nitro) benzene sulfonic acid hydrate and Electron-coupling reagent: PMS (N-methyl dibenzopyrazine methyl sulfate) were added to each well of the plate. After an additional 2-6 hours […] with a spectrophotometer.

[1] = biological target: MET kinase (c-MET), kinase domain of human Met (Homo sapiens, UniProt P08581); assay: MET luminescence-based enzyme assay (Kinase-Glo)
Chain of MET kinase (c-MET), kinase domain of human Met (P08581 1078-1345 limits assumed): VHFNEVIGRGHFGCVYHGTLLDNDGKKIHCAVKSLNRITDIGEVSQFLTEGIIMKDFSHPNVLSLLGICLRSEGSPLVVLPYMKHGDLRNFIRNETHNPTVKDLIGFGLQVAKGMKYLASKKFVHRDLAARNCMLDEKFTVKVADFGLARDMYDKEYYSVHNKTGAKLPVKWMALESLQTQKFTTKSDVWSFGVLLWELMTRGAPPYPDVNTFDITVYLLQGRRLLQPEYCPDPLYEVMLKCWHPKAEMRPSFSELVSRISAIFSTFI

N#Cc1cccc(-c2ccc3nnc(Cc4c(F)cc5ncccc5c4F)n3n2)c1 [compound 88]
EC50 (GTL16; Table 1): < 100 nM | IC50 [1]: < 100 nM

CNC(=O)c1ccc(-c2ccc3nnc(Cc4c(F)cc5ncccc5c4F)n3n2)cc1F [compound 89]
EC50 (GTL16; Table 1): < 100 nM | IC50 [1]: < 100 nM

Cn1cc(-c2ccc3nnc(Cc4cc5cccnc5cc4F)n3n2)cn1 [compound 90]
EC50 (GTL16; Table 1): < 100 nM | IC50 [1]: < 100 nM

CCNC(=O)c1ccc(-c2ccc3nnc(Cc4ccc5ncsc5c4)n3n2)cc1F [compound 94]
EC50 (GTL16; Table 1): 100 to 1000 nM | IC50 [1]: 100 to 1000 nM

CC(C)NC(=O)c1ccc(-c2ccc3nnc(Cc4ccc5ncsc5c4)n3n2)cc1F [compound 95]
EC50 (GTL16; Table 1): 100 to 1000 nM | IC50 [1]: < 100 nM

Cn1cc(-c2ccc3nnc(Cc4ccc5ncsc5c4)n3n2)cn1 [compound 96]
EC50 (GTL16; Table 1): < 100 nM | IC50 [1]: < 100 nM

N#Cc1cccc(-c2ccc3nnc(Cc4ccc5ncsc5c4)n3n2)c1 [compound 98]
EC50 (GTL16; Table 1): 100 to 1000 nM | IC50 [1]: 100 to 1000 nM

CNC(=O)c1ccc(-c2ccc3nnc(Cc4ccc5ncsc5c4)n3n2)cc1F [compound 101]
EC50 (GTL16; Table 1): 100 to 1000 nM | IC50 [1]: < 100 nM

CS(=O)(=O)c1cccc(-c2ccc3nnc(Cc4ccc5ncsc5c4)n3n2)c1 [compound 102]
EC50 (GTL16; Table 1): 100 to 1000 nM | IC50 [1]: < 100 nM

C[C@@H](c1ccc2ncsc2c1)c1nnc2ccc(-c3cccc(C#N)c3)nn12 [compound 103, (S)-3-[3-(1-Benzothiazol-6-yl-ethyl)-[1,2,4]triazolo[4,3-b]pyridazin-6-yl]-benzonitrile]
EC50 (GTL16; Table 1): < 100 nM | IC50 [1]: < 100 nM

C=Cc1ccc2nnc(Cc3ccc4ncccc4c3)n2n1 [compound 107]
EC50 (GTL16; Table 1): 100 to 1000 nM | IC50 [1]: 100 to 1000 nM

c1cnc2ccc(Cc3nnc4ccc(C5CC5)nn34)cc2c1 [compound 109, 6-(6-Cyclopropyl-[1,2,4]triazolo[4,3-b]pyridazin-3-ylmethyl)-quinoline]
EC50 (GTL16; Table 1): 100 to 1000 nM | IC50 [1]: 100 to 1000 nM

Fc1cc2ncccc2c(F)c1Cc1nnc2ccc(Cl)nn12 [compound 111, 6-(6-Chloro-[1,2,4]triazolo[4,3-b]pyridazin-3-ylmethyl)-5,7-difluoro-quinoline]
EC50 (GTL16; Table 1): 100 to 1000 nM | IC50 [1]: 100 to 1000 nM

c1cnc2ccc(Cc3nnc4ccc(N5CCCCC5)nn34)cc2c1 [compound 112]
EC50 (GTL16; Table 1): 100 to 1000 nM | IC50 [1]: 100 to 1000 nM

CN1CCN(c2ccc3nnc(Cc4ccc5ncccc5c4)n3n2)CC1 [compound 113]
EC50 (GTL16; Table 1): 100 to 1000 nM | IC50 [1]: 100 to 1000 nM

Brc1cnc2ccc(Cc3nnc4nccnn34)cc2c1 [compound 117, 3-Bromo-6-[1,2,4]triazolo[4,3-b][1,2,4]triazin-3-ylmethyl-quinoline]
EC50 (GTL16; Table 1): < 100 nM | IC50 [1]: < 100 nM

Cn1cc(-c2cnc3ccc(Cc4nnc5ccc(C(F)(F)F)nn45)cc3c2)cn1 [compound 123, 3-(1-Methyl-1H-pyrazol-4-yl)-6-(6-trifluoromethyl-[1,2,4]triazolo[4,3-b]pyridazin-3-ylmethyl)-quinoline]
EC50 (GTL16; Table 2): 100 to 1000 nM | IC50 [1]: < 100 nM

Cc1ccc2nnc(Cc3ccc4ncc(-c5cn[nH]c5)cc4c3)n2n1 [compound 125, 6-(6-Methyl-[1,2,4]triazolo[4,3-b]pyridazin-3-ylmethyl)-3-(1H-pyrazol-4-yl)-quinoline]
EC50 (GTL16; Table 2): 100 to 1000 nM | IC50 [1]: < 100 nM

Cc1ccc2nnc(Cc3ccc4ncc(-c5cnn(C6CCNCC6)c5)cc4c3)n2n1 [compound 126]
EC50 (GTL16; Table 2): < 100 nM | IC50 [1]: < 100 nM

Cc1ccc2nnc(Cc3ccc4ncc(-c5cc(F)cc(F)c5)cc4c3)n2n1 [compound 128]
EC50 (GTL16; Table 2): 1000 to 10000 nM | IC50 [1]: 100 to 1000 nM

Cc1ccc2nnc(Cc3ccc4ncc(-c5cncnc5)cc4c3)n2n1 [compound 129]
EC50 (GTL16; Table 2): 1000 to 10000 nM | IC50 [1]: 100 to 1000 nM

Cc1ccc2nnc(Cc3ccc4ncc(-c5cccc(C#N)c5)cc4c3)n2n1 [compound 130]
EC50 (GTL16; Table 2): < 100 nM | IC50 [1]: < 100 nM

Cc1ccc2nnc(Cc3ccc4ncc(-c5cccnc5)cc4c3)n2n1 [compound 131]
EC50 (GTL16; Table 2): < 100 nM | IC50 [1]: < 100 nM

Cc1ccc2nnc(Cc3ccc4ncc(-n5ccnc5)cc4c3)n2n1 [compound 132, 3-Imidazol-1-yl-6-(6-methyl-[1,2,4]triazolo[4,3-b]pyridazin-3-ylmethyl)-quinoline]
EC50 (GTL16; Table 2): 100 to 1000 nM | IC50 [1]: 100 to 1000 nM

Cc1ccc2nnc(Cc3ccc4ncc(-c5cnn(CCN6CCOCC6)c5)cc4c3)n2n1 [compound 133]
EC50 (GTL16; Table 2): < 100 nM | IC50 [1]: < 100 nM

Cc1ccc2nnc(Cc3ccc4ncc(-c5cnn(CC(=O)O)c5)cc4c3)n2n1 [compound 134]
EC50 (GTL16; Table 2): 100 to 1000 nM | IC50 [1]: < 100 nM

Cc1ccc2nnc(Cc3ccc4ncc(-c5cccc(C(=O)O)c5)cc4c3)n2n1 [compound 135]
EC50 (GTL16; Table 2): 1000 to 10000 nM | IC50 [1]: 100 to 1000 nM

Cc1ccc2nnc(Cc3ccc4ncc(-c5ccc(C(=O)O)cc5)cc4c3)n2n1 [compound 136]
EC50 (GTL16; Table 2): 1000 to 10000 nM | IC50 [1]: 100 to 1000 nM

Cc1ccc2nnc(Cc3ccc4ncc(-c5cc6ccccc6[nH]5)cc4c3)n2n1 [compound 137]
EC50 (GTL16; Table 2): 100 to 1000 nM | IC50 [1]: < 100 nM

Cc1ccc2nnc(Cc3ccc4ncc(-c5ccc[nH]5)cc4c3)n2n1 [compound 138]
EC50 (GTL16; Table 2): 1000 to 10000 nM | IC50 [1]: < 100 nM

Cn1cc(-c2cnc3ccc(Cc4nnc5cccnn45)cc3c2)cn1 [compound 139]
EC50 (GTL16; Table 2): < 100 nM | IC50 [1]: < 100 nM

COc1ccc2nnc(Cc3ccc4ncc(-c5cnn(C)c5)cc4c3)n2n1 [compound 140, 6-(6-Methoxy-[1,2,4]triazolo[4,3-b]pyridazin-3-ylmethyl)-3-(1-methyl-1H-pyrazol-4-yl)-quinoline]
EC50 (GTL16; Table 2): < 100 nM | IC50 [1]: < 100 nM

Cn1cc(-c2cnc3ccc(Cc4nnc5ccc(-c6cnn(C)c6)nn45)cc3c2)cn1 [compound 141]
EC50 (GTL16; Table 2): < 100 nM | IC50 [1]: < 100 nM

Cc1ccc2nnc(Cc3ccc4ncc(-c5cnc[nH]5)cc4c3)n2n1 [compound 142, 3-(1H-Imidazol-4-yl)-6-(6-methyl-[1,2,4]triazolo[4,3-b]pyridazin-3-ylmethyl)-quinoline]
EC50 (GTL16; Table 2): 100 to 1000 nM | IC50 [1]: 100 to 1000 nM

CCC(=O)Cn1cc(-c2cnc3ccc(Cc4nnc5ccc(C)nn45)cc3c2)cn1 [compound 143]
EC50 (GTL16; Table 2): < 100 nM | IC50 [1]: < 100 nM

Cc1ccc2nnc(Cc3ccc4ncc(-c5cnn(CCO)c5)cc4c3)n2n1 [compound 144, 2-{4-[6-(6-Methyl-[1,2,4]triazolo[4,3-b]pyridazin-3-ylmethyl)-quinolin-3-yl]pyrazol-1-yl}-ethanol]
EC50 (GTL16; Table 2): 100 to 1000 nM | IC50 [1]: < 100 nM

Cc1ccc2nnc(Cc3c(F)cc4ncc(-c5cnn(C)c5)cc4c3F)n2n1 [compound 145, 5,7-Difluoro-3-(1-methyl-1H-pyrazol-4-yl)-6-(6-methyl-[1,2,4]triazolo[4,3b]pyridazin-3-ylmethyl)-quinoline]
EC50 (GTL16; Table 2): < 100 nM | IC50 [1]: < 100 nM

Cc1ccc2nnc(Cc3c(F)cc4ncc(-c5cnn(CCN6CCOCC6)c5)cc4c3F)n2n1 [compound 146]
EC50 (GTL16; Table 2): < 100 nM | IC50 [1]: < 100 nM

COCCn1cc(-c2cnc3ccc(Cc4nnc5ccc(C)nn45)cc3c2)cn1 [compound 147]
EC50 (GTL16; Table 2): < 100 nM | IC50 [1]: < 100 nM

Cc1ccc2nnc(Cc3ccc4ncc(-c5cnn(CCC#N)c5)cc4c3)n2n1 [compound 148]
EC50 (GTL16; Table 2): < 100 nM | IC50 [1]: < 100 nM

Cc1ccc2nnc(Cc3ccc4ncc(-c5cnn(CC(N)=O)c5)cc4c3)n2n1 [compound 149, 2-{4-[6-(6-Methyl-[1,2,4]triazolo[4,3-b]pyridazin-3-ylmethyl)-quinolin-3-yl]-pyrazol-1-yl}-acetamide]
EC50 (GTL16; Table 2): 1000 to 10000 nM | IC50 [1]: < 100 nM

Cc1ccc2nnc(Cc3c(F)cc4ncc(-c5cnn(CC(=O)O)c5)cc4c3F)n2n1 [compound 151]
EC50 (GTL16; Table 2): 1000 to 10000 nM | IC50 [1]: < 100 nM

Cc1ccc2nnc(Cc3ccc4ncc(-c5cnn(C6CNC6)c5)cc4c3)n2n1 [compound 153]
EC50 (GTL16; Table 2): 100 to 1000 nM | IC50 [1]: < 100 nM

Cc1ccc2nnc(Cc3ccc4ncc(-c5cnn(CCC(N)=O)c5)cc4c3)n2n1 [compound 154]
EC50 (GTL16; Table 2): 100 to 1000 nM | IC50 [1]: < 100 nM

Cc1ccc2nnc(Cc3ccc4ncc(-c5cnn(CC6CNC6)c5)cc4c3)n2n1 [compound 155, 3-(1-Azetidin-3-ylmethyl-1H-pyrazol-4-yl)-6-(6-methyl-[1,2,4]triazolo[4,3-b]pyridazin-3-ylmethyl)-quinoline]
EC50 (GTL16; Table 2): 100 to 1000 nM | IC50 [1]: < 100 nM

CCc1ccc2nnc(Cc3ccc4ncc(-c5cnn(C)c5)cc4c3)n2n1 [compound 157, 6-(6-Ethyl-[1,2,4]triazolo[4,3-b]pyridazin-3-ylmethyl)-3-(1-methyl-1H-pyrazol-4-yl)-quinoline]
EC50 (GTL16; Table 2): < 100 nM | IC50 [1]: < 100 nM
